The numbers were not newly measured in patent US20130096134A1, “HETEROCYCLIC COMPOUNDS AND THEIR USES” (Amgen Inc., priority 2010, published 2013), which cites them from elsewhere.

Data set [1] concerns model of systemic lupus erythematosis. The following applies: in vivo.
The test system of data set [2] is mouse model of rheumatoid arthritis. The following applies: in vivo.
In a further data set the test system is murine model of asthma. To be noted: ovalbumin-induced airway inflammation.
Another data set concerns the target T1, p110δ (Homo sapiens, UniProt O00329).
T1 sequence (O00329 1-1044): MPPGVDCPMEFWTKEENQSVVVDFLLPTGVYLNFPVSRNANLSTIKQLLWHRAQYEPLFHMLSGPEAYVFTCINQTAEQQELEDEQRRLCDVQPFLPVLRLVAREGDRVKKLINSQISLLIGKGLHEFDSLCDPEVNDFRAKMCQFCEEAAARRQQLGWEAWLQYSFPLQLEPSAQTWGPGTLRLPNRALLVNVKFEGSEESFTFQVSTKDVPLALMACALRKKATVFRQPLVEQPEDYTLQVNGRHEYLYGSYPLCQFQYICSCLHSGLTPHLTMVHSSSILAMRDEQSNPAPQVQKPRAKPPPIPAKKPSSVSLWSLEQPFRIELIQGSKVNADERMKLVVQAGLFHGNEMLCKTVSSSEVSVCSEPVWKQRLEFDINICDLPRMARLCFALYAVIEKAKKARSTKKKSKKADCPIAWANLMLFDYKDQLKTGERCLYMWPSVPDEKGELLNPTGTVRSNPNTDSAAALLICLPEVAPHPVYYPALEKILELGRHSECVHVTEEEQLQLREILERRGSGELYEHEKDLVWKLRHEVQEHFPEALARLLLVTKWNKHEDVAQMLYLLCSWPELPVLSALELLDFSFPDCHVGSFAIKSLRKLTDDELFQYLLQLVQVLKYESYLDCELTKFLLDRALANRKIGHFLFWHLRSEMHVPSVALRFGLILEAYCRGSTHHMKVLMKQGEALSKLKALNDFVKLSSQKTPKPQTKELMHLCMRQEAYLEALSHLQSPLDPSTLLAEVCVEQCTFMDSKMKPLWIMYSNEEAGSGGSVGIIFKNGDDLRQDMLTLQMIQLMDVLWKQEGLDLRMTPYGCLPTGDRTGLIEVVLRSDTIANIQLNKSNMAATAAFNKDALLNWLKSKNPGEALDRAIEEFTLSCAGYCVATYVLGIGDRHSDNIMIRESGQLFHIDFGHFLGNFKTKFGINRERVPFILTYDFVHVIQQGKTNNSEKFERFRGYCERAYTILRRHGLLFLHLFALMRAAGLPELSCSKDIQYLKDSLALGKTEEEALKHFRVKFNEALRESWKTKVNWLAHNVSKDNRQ

With `O=C1NC(=O)/C(=C\c2ccc3nccnc3c2)S1` [AS 605240], the “onset of disease in a model of systemic lupus erythematosis” value in data set [1] was “delay onset of disease”. In data set [2], the “efficacy in a mouse model of rheumatoid arthritis” value is listed as “efficacious”.

As for `Cc1ccccc1-n1c(Cn2cnc3c(N)ncnc32)nc2cccc(C)c2c1=O` [IC87114], the “inflammation and disease in a murine model of asthma” value in the data set on murine model of asthma was “significantly ameliorate inflammation and disease”. In addition, the “inhibition of p110δ” value at p110δ is recorded as “high nanomolar range (triple digit)”. The “activity against any protein kinases tested” value in the data set on protein kinases is “no activity”.
